Assay results from the Kinase Knowledgebase extract (Sharma et al. 2016).
Values after ≈ are worked out from the molar mass of the structure shown. Values joined by “and” are separate entries in the source; they are usually repeats but may differ in a detail not shown here. Equal entries are not always repeated.

Columns and labels:
EGFR (human) [1] = target: EGFR (human) (UniProt P00533); conditions: mda435
EGFR (human) [2] = target: EGFR (human) (UniProt P00533); conditions: a431
EGFR (human) [3] = target: EGFR (human) (UniProt P00533); conditions: skbr3
EGFR (human) [4] = target: EGFR (human) (UniProt P00533); conditions: a2780s
EGFR (human) [5] = target: EGFR (human) (UniProt P00533); conditions: a2780ddp
EGFR (human) [6] = target: EGFR (human) (UniProt P00533); conditions: sw 620
EGFR (human) [7] = target: EGFR (human) (UniProt P00533); conditions: lox
EGFR (human) [8] = target: EGFR (human) (UniProt P00533); conditions: mcf-7
EGFR = EGFR (UniProt P00533)
EGFR (human) [9] = target: EGFR (human) (UniProt P00533); conditions: 3t3
EGFR (human) [10] = target: EGFR (human) (UniProt P00533); conditions: her2/3t3

EGFR (human), sequence (P00533 whole entry, looked up): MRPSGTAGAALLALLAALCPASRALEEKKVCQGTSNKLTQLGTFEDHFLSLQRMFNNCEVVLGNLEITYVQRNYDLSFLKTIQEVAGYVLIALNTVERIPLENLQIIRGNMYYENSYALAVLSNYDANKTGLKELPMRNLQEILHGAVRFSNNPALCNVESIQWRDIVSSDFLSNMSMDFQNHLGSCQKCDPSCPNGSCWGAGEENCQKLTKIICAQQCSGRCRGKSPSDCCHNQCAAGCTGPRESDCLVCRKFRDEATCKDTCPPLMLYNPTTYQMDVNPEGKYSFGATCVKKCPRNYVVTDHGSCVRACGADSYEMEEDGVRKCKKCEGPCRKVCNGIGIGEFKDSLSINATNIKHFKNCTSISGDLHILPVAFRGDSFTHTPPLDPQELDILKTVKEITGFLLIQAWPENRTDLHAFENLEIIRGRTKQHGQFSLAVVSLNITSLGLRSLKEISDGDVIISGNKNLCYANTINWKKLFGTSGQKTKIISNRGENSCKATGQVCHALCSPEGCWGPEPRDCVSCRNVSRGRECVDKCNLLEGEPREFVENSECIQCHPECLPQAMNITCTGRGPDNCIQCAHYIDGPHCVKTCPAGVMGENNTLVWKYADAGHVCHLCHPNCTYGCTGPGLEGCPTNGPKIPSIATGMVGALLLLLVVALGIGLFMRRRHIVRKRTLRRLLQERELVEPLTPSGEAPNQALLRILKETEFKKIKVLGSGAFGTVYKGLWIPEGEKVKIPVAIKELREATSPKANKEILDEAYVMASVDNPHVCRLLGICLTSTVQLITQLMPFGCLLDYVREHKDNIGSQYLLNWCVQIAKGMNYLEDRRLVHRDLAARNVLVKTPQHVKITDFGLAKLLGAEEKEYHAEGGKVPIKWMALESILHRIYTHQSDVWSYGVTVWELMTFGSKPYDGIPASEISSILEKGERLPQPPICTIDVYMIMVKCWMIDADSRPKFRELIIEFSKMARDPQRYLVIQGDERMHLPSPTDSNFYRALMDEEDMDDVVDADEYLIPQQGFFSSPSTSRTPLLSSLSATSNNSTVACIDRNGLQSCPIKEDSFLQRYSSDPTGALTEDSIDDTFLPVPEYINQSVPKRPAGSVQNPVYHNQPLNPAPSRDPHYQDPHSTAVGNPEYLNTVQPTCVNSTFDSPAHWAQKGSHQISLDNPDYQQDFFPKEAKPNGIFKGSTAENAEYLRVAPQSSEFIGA
EGFR, sequence (P00533 whole entry, looked up): as above

Row | Compound | IC50 (EGFR (human) [1]) [mg/L] | IC50 (EGFR (human) [2]) | IC50 (EGFR (human) [3]) [mg/L] | IC50 (EGFR (human) [4]) [mg/L] | IC50 (EGFR (human) [5]) [mg/L] | IC50 (EGFR (human) [6]) [mg/L] | IC50 (EGFR (human) [7]) [mg/L] | IC100 (EGFR (human) [2]) [µM] | IC50 (EGFR (human) [8]) | IC50 (EGFR) [µM] | IC50 (EGFR (human) [9]) | IC50 (EGFR (human) [10])
1 | COc1ccc(CNc2cc3c(Nc4cccc(Br)c4)c(C#N)cnc3cn2)cc1 | 2.4 (≈ 5.21 µM) | 0.4 mg/L (≈ 0.869 µM) | 2.9 (≈ 6.3 µM) | 1 (≈ 2.17 µM) | 1.8 (≈ 3.91 µM) | 4.1 (≈ 8.91 µM) | – | – | – | – | – | –
2 | N#Cc1cnc2cnc(NCCN3CCOCC3)cc2c1Nc1cccc(Br)c1 | 49 (≈ 108 µM) | 0.5 mg/L (≈ 1.1 µM) | – | 0.5 (≈ 1.1 µM) | – | 41 (≈ 90.4 µM) | 57 (≈ 126 µM) | – | – | – | – | –
3 | CC#CC(=O)Nc1cnc2ncc(C#N)c(Nc3ccc(F)c(Cl)c3)c2c1 | – | – | – | – | – | – | – | – | – | > 0.1 | – | –
4 | CN(C)CCOc1cc2c(Nc3ccc(F)c(Cl)c3)c(C#N)cnc2cn1 | > 5 | 2.23 mg/L (≈ 5.77 µM) | 4.63 (≈ 12 µM) | – | – | > 5 | – | – | – | – | 4.48 mg/L (≈ 11.6 µM) | > 5 mg/L
5 | CN(C)C/C=C/C(=O)Nc1cnc2ncc(C#N)c(Nc3cccc(Br)c3)c2c1 | > 5 | 2.76 mg/L (≈ 6.12 µM) | 4.83 (≈ 10.7 µM) | 1.77 (≈ 3.92 µM) | 4 (≈ 8.87 µM) | > 5 | – | – | – | > 0.8 | – | –

Continued, values first:

Row | IC50 (EGFR (human) [1]) [mg/L] | IC50 (EGFR (human) [2]) | IC50 (EGFR (human) [3]) [mg/L] | IC50 (EGFR (human) [4]) [mg/L] | IC50 (EGFR (human) [5]) [mg/L] | IC50 (EGFR (human) [6]) [mg/L] | IC50 (EGFR (human) [7]) [mg/L] | IC100 (EGFR (human) [2]) [µM] | IC50 (EGFR (human) [8]) | IC50 (EGFR) [µM] | IC50 (EGFR (human) [9]) | IC50 (EGFR (human) [10]) | Compound
6 | 47 | 59 mg/L | 41 | 31 | 52 | 42 | 56 | – | – | – | – | – | CN(C)c1cc[n+](-c2cc3c(Nc4cccc(Br)c4)c(C#N)cnc3cn2)cc1
7 | 0.98 (≈ 2.77 µM) | 0.31 mg/L and 0.209 mg/L | 1.88 (≈ 5.3 µM) | – | – | 4.62 (≈ 13 µM) | 3.6 (≈ 10.2 µM) | 0.59 | 10.9 µM and 3.87 µM | – | – | – | CNc1cc2c(Nc3cccc(Br)c3)c(C#N)cnc2cn1
8 | 4.2 (≈ 9.97 µM) | 3.06 mg/L (≈ 7.25 µM) | 3.59 (≈ 8.52 µM) | 2.34 (≈ 5.56 µM) | 2.97 (≈ 7.05 µM) | 4.72 (≈ 11.2 µM) | – | – | – | – | – | – | C[Si](C)(C)C#Cc1cc2c(Nc3cccc(Br)c3)c(C#N)cnc2cn1
9 | > 5 | 0.4 mg/L (≈ 1.18 µM) | 4.1 (≈ 12.1 µM) | 3.5 (≈ 10.3 µM) | 3.1 (≈ 9.11 µM) | > 5 | – | – | – | – | – | – | N#Cc1cnc2cnc(N)cc2c1Nc1cccc(Br)c1
10 | 0.464 (≈ 1.03 µM) | 0.088 mg/L (≈ 0.195 µM) | 0.0357 (≈ 0.079 µM) | – | – | 0.356 (≈ 0.789 µM) | – | – | – | – | 0.272 mg/L and 0.373 mg/L | 0.106 mg/L and 0.0436 mg/L | CN(C)C/C=C/C(=O)Nc1cc2c(Nc3cccc(Br)c3)c(C#N)cnc2cn1
11 | > 5 | 3.92 mg/L (≈ 11.4 µM) | > 5 | 3.33 (≈ 9.7 µM) | > 5 | > 5 | – | – | – | – | – | – | N#Cc1cnc2cnc(F)cc2c1Nc1cccc(Br)c1
12 | 0.88 (≈ 2.17 µM) | 0.23 mg/L (≈ 0.566 µM) | 0.12 (≈ 0.295 µM) | – | 0.13 (≈ 0.32 µM) | 0.17 (≈ 0.418 µM) | 0.07 (≈ 0.172 µM) | – | 0.98 µM and 0.4 µM | – | – | – | CC#CC(=O)Nc1cc2c(Nc3cccc(Br)c3)c(C#N)cnc2cn1
